Measured values from patent US20070203066A1, “Compositions and methods for inhibiting cellular proliferation” (priority 2005, published 2007).
Like-named read-outs stand apart in the source and are kept apart here. Primed or numbered codes have the meaning given here. No end group written: not given here. Ida″ = iminodiacetic acid linker bound to the Lys side-chain amine, forming a dimer

Tested on: HUVECs
Assay type: cell-based
Summary of the method: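 Proliferation read-out: BrdU incorporation after 48-hour culture (37 ° C, 5% CO2) with graded peptide doses. Cells were in EBM with 2% FCS at 5,000 per well, driven by VEGF (5 ng/ml) or bFGF (10 ng/ml), added after ≥12-hour attachment.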

[1] = HUVEC proliferation, bFGF at 10 ng/ml or VEGF at 5 ng/ml, 48 hours, BrdU incorporation, read-out: IC50 on HUVECs

Molecule: 487 (Ac-ARRRRQPVAIKF; not fully specified (residue 11); also: homodimer: Lys11 side chain bound to Ida linker (Boc on Ida N)) [compound 487]
- IC50 [1]: 10 to 30 µM

Molecule: 488 (Ac-PRRRNQAVAIKF; not fully specified (residue 11); also: homodimer via Ida linker on Lys11 side chain) [compound 488]
- IC50 [1]: 10 to 30 µM

Molecule: 489 (Ac-PRRRPQAVAIK(Ida″)F; also: homodimer via Ida linker on Lys11 side chain) [compound 489]
- IC50 [1]: < 10 µM

Molecule: 490 (Ac-PRRRRQSVAIK(Ida″)F; also: homodimer via Ida linker on Lys11 side chain) [compound 490]
- IC50 [1]: 10 to 30 µM

Molecule: 491 (Ac-PRRRRQPVAIK(Ida″)F; also: homodimer via Ida linker on Lys11 side chain) [compound 491]
- IC50 [1]: 10 to 30 µM

Molecule: 492 (Ac-ARRRNQSVAIKF; not fully specified (residue 11); also: homodimer: Lys11 side chain bound to Ida linker (Boc on Ida N)) [compound 492]
- IC50 [1]: 10 to 30 µM

Molecule: 493 (Ac-ARRRNQPVAIKF; not fully specified (residue 11); also: homodimer: Lys11 side chain bound to Ida linker (Boc on Ida N)) [compound 493]
- IC50 [1]: > 30 µM

Molecule: 494 (Ac-PRNRRQAVAIYFK(Ida″); not fully specified (C-terminus); also: homodimer via Ida linker on Lys13 side chain) [compound 494]
- IC50 [1]: 10 to 30 µM

Molecule: 495 (Ac-PRERRQAVAIYFK(Ida″); not fully specified (C-terminus); also: homodimer via Ida linker on Lys13 side chain) [compound 495]
- IC50 [1]: > 30 µM

Molecule: 496 (Ac-PRHRRQAVAIYFK(Ida″); not fully specified (C-terminus); also: homodimer via Ida linker on Lys13 side chain) [compound 496]
- IC50 [1]: 10 to 30 µM

Molecule: 497 (Ac-PRLRRQAVAIYFK(Ida″); not fully specified (C-terminus); also: homodimer via Ida linker on Lys13 side chain) [compound 497]
- IC50 [1]: 10 to 30 µM

Molecule: 498 (Ac-PRSRRQAVAIYFK(Ida″); not fully specified (C-terminus); also: homodimer via Ida linker on Lys13 side chain) [compound 498]
- IC50 [1]: < 10 µM

Molecule: 499 (Ac-PRYRRQAVAIYFK(Ida″); not fully specified (C-terminus); also: homodimer via Ida linker on Lys13 side chain) [compound 499]
- IC50 [1]: < 10 µM

Molecule: 500 (Ac-PRRNRQAVAIYFK(Ida″); not fully specified (C-terminus); also: homodimer via Ida linker on Lys13 side chain) [compound 500]
- IC50 [1]: < 10 µM

Molecule: 501 (Ac-PRRERQAVAIYFK; not fully specified (residue 13, C-terminus); also: homodimer via Ida linker on Lys13 side chain) [compound 501]
- IC50 [1]: < 10 µM

Molecule: 502 (Ac-PRRHRQAVAIYFK; not fully specified (residue 13, C-terminus); also: homodimer via Ida linker on Lys13 side chain) [compound 502]
- IC50 [1]: 10 to 30 µM

Molecule: 503 (Ac-PRRLRQAVAIYFK; not fully specified (residue 13, C-terminus); also: homodimer via Ida linker on Lys13 side chain) [compound 503]
- IC50 [1]: < 10 µM

Molecule: 505 (Ac-PRRYRQAVAIYFK; not fully specified (residue 13, C-terminus); also: homodimer via Ida linker on Lys13 side chain) [compound 505]
- IC50 [1]: < 10 µM

Molecule: 506 (Ac-ARRRRQRVAIYFKGGRGDSP; also: homodimer via Ida linker at Lys13 side chain) [compound 506]
- IC50 [1]: < 10 µM

Molecule: 507 (Ac-RGDSPGGARRRRQRVAIYFK; also: homodimer via Ida linker on Lys20 side chain) [compound 507]
- IC50 [1]: < 10 µM

Molecule: 508 (Ac-CNGRCGGARRRRQRVAIYFK; not fully specified (C-terminus); cysteine pairing not given here; also: homodimer via Ida linker at Lys20 side chain) [compound 508]
- IC50 [1]: < 10 µM

Molecule: 509 (Ac-ARRRRARVAIYFK; not fully specified (C-terminus); also: homodimer via Ida linker at Lys13 side chain) [compound 509]
- IC50 [1]: < 10 µM

Molecule: 510 (Ac-ARRRRERVAIYFK; not fully specified (C-terminus); also: homodimer via Ida linker at Lys13 side chain) [compound 510]
- IC50 [1]: < 10 µM

Molecule: 511 (Ac-ARRRRFRVAIYFK; not fully specified (C-terminus); also: homodimer via Ida linker at Lys13 side chain) [compound 511]
- IC50 [1]: 10 to 30 µM

Molecule: 512 (Ac-ARRRRGRVAIYFK; not fully specified (C-terminus); also: homodimer via Ida linker at Lys13 side chain) [compound 512]
- IC50 [1]: < 10 µM

Molecule: 513 (Ac-ARRRRIRVAIYFK; not fully specified (C-terminus); also: homodimer via Ida linker at Lys13 side chain) [compound 513]
- IC50 [1]: 10 to 30 µM

Molecule: CC[C@H](C)[C@H](NC(=O)[C@H](CCCNC(=N)N)NC(=O)[C@@H](NC(=O)[C@H](CCCNC(=N)N)NC(=O)[C@H](CCC(N)=O)NC(=O)[C@H](CCCNC(=N)N)NC(=O)[C@H](CCCNC(=N)N)NC(=O)[C@H](CCCNC(=N)N)NC(=O)[C@H](CCCNC(=N)N)NC(=O)[C@H](CCCNC(=N)N)NC(C)=O)C(C)C)C(=O)N[C@H](C(=O)N[C@@H](Cc1ccccc1)C(=O)N[C@@H](CCCCNC(=O)CN(CC(=O)NCCCC[C@H](NC(=O)[C@H](Cc1ccccc1)NC(=O)[C@@H](NC(=O)[C@@H](NC(=O)[C@H](CCCNC(=N)N)NC(=O)[C@@H](NC(=O)[C@H](CCCNC(=N)N)NC(=O)[C@H](CCC(N)=O)NC(=O)[C@H](CCCNC(=N)N)NC(=O)[C@H](CCCNC(=N)N)NC(=O)[C@H](CCCNC(=N)N)NC(=O)[C@H](CCCNC(=N)N)NC(=O)[C@H](CCCNC(=N)N)NC(C)=O)C(C)C)[C@@H](C)CC)[C@@H](C)CC)C(N)=O)C(=O)CCNC(=O)OC(C)(C)C)C(N)=O)[C@@H](C)CC [Peptide 167]
- IC50 (48 h): < 10 µM

Molecule: CC[C@H](C)[C@H](NC(=O)[C@H](C)NC(=O)[C@@H](NC(=O)[C@H](CCCNC(=N)N)NC(=O)[C@H](CCC(N)=O)NC(=O)[C@H](CCCNC(=N)N)NC(=O)[C@H](CCCNC(=N)N)NC(=O)[C@H](CCCNC(=N)N)NC(=O)[C@H](CCCNC(=N)N)NC(=O)[C@H](C)NC(C)=O)C(C)C)C(=O)N[C@@H](Cc1ccc(O)cc1)C(=O)N[C@@H](Cc1ccccc1)C(=O)N[C@@H](CCCCNC(=O)CN(CC(=O)NCCCC[C@H](NC(=O)[C@H](Cc1ccccc1)NC(=O)[C@H](Cc1ccc(O)cc1)NC(=O)[C@@H](NC(=O)[C@H](C)NC(=O)[C@@H](NC(=O)[C@H](CCCNC(=N)N)NC(=O)[C@H](CCC(N)=O)NC(=O)[C@H](CCCNC(=N)N)NC(=O)[C@H](CCCNC(=N)N)NC(=O)[C@H](CCCNC(=N)N)NC(=O)[C@H](CCCNC(=N)N)NC(=O)[C@H](C)NC(C)=O)C(C)C)[C@@H](C)CC)C(N)=O)C(=O)CCNC(=O)OC(C)(C)C)C(N)=O [Peptide 228]
- IC50 (48 h): < 10 µM

Molecule: CC[C@H](C)[C@H](NC(=O)[C@H](C)NC(=O)[C@@H](NC(=O)[C@H](C)NC(=O)[C@H](CCC(N)=O)NC(=O)[C@H](CCCNC(=N)N)NC(=O)[C@H](CCCNC(=N)N)NC(=O)[C@H](CCCNC(=N)N)NC(=O)[C@H](CCCNC(=N)N)NC(=O)[C@H](CCCNC(=N)N)NC(C)=O)C(C)C)C(=O)N[C@@H](Cc1c[nH]cn1)C(=O)N[C@@H](Cc1ccccc1)C(=O)N[C@@H](CCCCNC(=O)CN(CC(=O)NCCCC[C@H](NC(=O)[C@H](Cc1ccccc1)NC(=O)[C@H](Cc1c[nH]cn1)NC(=O)[C@@H](NC(=O)[C@H](C)NC(=O)[C@@H](NC(=O)[C@H](C)NC(=O)[C@H](CCC(N)=O)NC(=O)[C@H](CCCNC(=N)N)NC(=O)[C@H](CCCNC(=N)N)NC(=O)[C@H](CCCNC(=N)N)NC(=O)[C@H](CCCNC(=N)N)NC(=O)[C@H](CCCNC(=N)N)NC(C)=O)C(C)C)[C@@H](C)CC)C(N)=O)C(=O)CCNC(=O)OC(C)(C)C)C(N)=O [Peptide 250]
- IC50 (48 h): < 10 µM

Molecule: CC[C@@H](C)[C@@H](NC(=O)[C@@H](NC(=O)[C@H](C)NC(=O)[C@@H](NC(=O)[C@H](CCCNC(=N)N)NC(=O)[C@H](CCC(N)=O)NC(=O)[C@H](CCCNC(=N)N)NC(=O)[C@H](CCCNC(=N)N)NC(=O)[C@H](CCCNC(=N)N)NC(=O)[C@H](CCCNC(=N)N)NC(=O)[C@H](C)NC(C)=O)C(C)C)[C@@H](C)CC)C(=O)N[C@@H](Cc1ccccc1)C(=O)N[C@@H](CCCCNC(=O)CN(CC(=O)NCCCC[C@H](NC(=O)[C@H](Cc1ccccc1)NC(=O)[C@H](NC(=O)[C@@H](NC(=O)[C@H](C)NC(=O)[C@@H](NC(=O)[C@H](CCCNC(=N)N)NC(=O)[C@H](CCC(N)=O)NC(=O)[C@H](CCCNC(=N)N)NC(=O)[C@H](CCCNC(=N)N)NC(=O)[C@H](CCCNC(=N)N)NC(=O)[C@H](CCCNC(=N)N)NC(=O)[C@H](C)NC(C)=O)C(C)C)[C@@H](C)CC)[C@H](C)CC)C(N)=O)C(=O)CCNC(=O)OC(C)(C)C)C(N)=O [Peptide 254]
- IC50 (48 h): < 10 µM
